Assay results reported in patent publication US9662323B2, “Compounds having muscarinic receptor antagonist and beta2 adrenergic receptor agonist activity” (CHIESI FARMACEUTICI S.p.A., priority 2015, dated 2017).

What was measured:
Human β2 adrenoceptor = target: T1, Human β2 adrenoceptor (Homo sapiens, UniProt P07550); test: β2 Adrenoceptor Radioligand Binding Assay; details: human β2 adrenoceptor membranes, 125-I Cyanopindolol; read-out: B2 binding affinity (Ki class)
T1 construct: purchased Perkin Elmer
Method in brief: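 Membranes were incubated 1 h at room temperature in 25 mM HEPES, 0.5% BSA, 1 mM EDTA, 0.02% ascorbic acid, pH 7.4, with 0.5% DMSO final. Bound radioligand was collected by GF/C filtration and counted by scintillation. IC50 values from competition curves were converted to Ki by Cheng–Prusoff.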

Human M3 receptor = target: T2, Human M3 receptor (Homo sapiens, UniProt P20309); test: M3 Receptor Radioligand Binding Assay; details: human M3 receptor membranes, [3H]-N-methyl scopolamine; read-out: M3 binding affinity (Ki class)
T2 construct: purchased Perkin Elmer
Method in brief: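 Radioligand binding with 0.5% (v/v) final DMSO, incubated 2 h at room temperature with shaking. Membranes were collected on GF/C filters pre-treated with 0.5% polyethyleneimine, washed four times with assay buffer, and counted by scintillation.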

T1 sequence (P07550 whole entry): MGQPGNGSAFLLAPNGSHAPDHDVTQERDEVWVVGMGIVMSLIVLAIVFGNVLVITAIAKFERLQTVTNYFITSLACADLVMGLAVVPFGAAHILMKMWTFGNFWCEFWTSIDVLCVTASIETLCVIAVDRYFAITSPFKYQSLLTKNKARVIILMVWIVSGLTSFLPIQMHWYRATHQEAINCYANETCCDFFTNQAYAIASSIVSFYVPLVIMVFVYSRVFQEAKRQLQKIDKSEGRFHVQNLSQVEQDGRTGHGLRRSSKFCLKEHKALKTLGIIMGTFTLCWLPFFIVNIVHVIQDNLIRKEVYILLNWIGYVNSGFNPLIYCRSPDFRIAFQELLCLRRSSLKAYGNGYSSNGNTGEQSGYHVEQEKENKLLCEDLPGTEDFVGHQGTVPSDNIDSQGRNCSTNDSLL
T2 sequence (P20309 whole entry): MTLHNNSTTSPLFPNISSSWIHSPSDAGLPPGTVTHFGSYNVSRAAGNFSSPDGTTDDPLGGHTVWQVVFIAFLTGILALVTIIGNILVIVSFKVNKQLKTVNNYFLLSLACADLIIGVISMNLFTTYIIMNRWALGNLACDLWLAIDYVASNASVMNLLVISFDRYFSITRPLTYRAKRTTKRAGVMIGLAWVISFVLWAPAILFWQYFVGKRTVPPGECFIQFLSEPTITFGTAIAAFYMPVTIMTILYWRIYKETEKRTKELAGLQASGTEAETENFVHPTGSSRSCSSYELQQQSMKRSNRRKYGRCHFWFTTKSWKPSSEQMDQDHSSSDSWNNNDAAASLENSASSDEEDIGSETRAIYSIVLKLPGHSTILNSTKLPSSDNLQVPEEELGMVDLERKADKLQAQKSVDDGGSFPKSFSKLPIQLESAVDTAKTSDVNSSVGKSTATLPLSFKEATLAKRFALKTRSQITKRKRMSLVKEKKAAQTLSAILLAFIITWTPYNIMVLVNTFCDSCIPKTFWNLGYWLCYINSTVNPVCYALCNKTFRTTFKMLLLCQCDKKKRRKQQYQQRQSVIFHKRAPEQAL

| SMILES | Ki (Human β2 adrenoceptor) | Ki (Human M3 receptor) |
| --- | --- | --- |
| O=C(Cc1ccc(CC(=O)N(CCCNC[C@H](O)c2ccc(O)c3[nH]c(=O)ccc23)Cc2cccc(Oc3ccc(Cl)c(Cl)c3)c2)cc1)N1CCC(C(=O)O[C@H]2CN3CCC2CC3)(c2ccccc2)CC1 [Compound 40, (R)-Quinuclidin-3-yl 1-(2-(4-(2-((3-(3,4-dichlorophenoxy)benzyl)(3-(((R)-2-hydroxy-2-(8-hydroxy-2-oxo-1,2-dihydroquinolin-5-yl)ethyl)amino)propyl)amino)-2-oxoethyl)phenyl)acetyl)-4-phenylpiperidine-4-carboxylate] | 1 to 10 nM | < 1 nM |
| O=C(Cc1ccc(CC(=O)N(CCCNC[C@H](O)c2ccc(O)c3[nH]c(=O)ccc23)Cc2cccc(OCc3ccccc3)c2)cc1)N1CCC(C(=O)O[C@H]2CN3CCC2CC3)(c2ccccc2)CC1 [Compound 41, (R)-Quinuclidin-3-yl 1-(2-(4-(2-((3-(benzyloxy)benzyl)(3-(((R)-2-hydroxy-2-(8-hydroxy-2-oxo-1,2-dihydroquinolin-5-yl)ethyl)amino)propyl)amino)-2-oxoethyl)phenyl)acetyl)-4-phenylpiperidine-4-carboxylate] | 1 to 10 nM | < 1 nM |
| O=C(Cc1ccc(CC(=O)N(CCCNC[C@H](O)c2ccc(O)c3[nH]c(=O)ccc23)Cc2cccc(F)c2)cc1)N1CCC(C(=O)O[C@H]2CN3CCC2CC3)(c2ccccc2)CC1 [Compound 42, (R)-Quinuclidin-3-yl 1-(2-(4-(2-((3-fluorobenzyl)(3-(((R)-2-hydroxy-2-(8-hydroxy-2-oxo-1,2-dihydroquinolin-5-yl)ethyl)amino)propyl)amino)-2-oxoethyl)phenyl)acetyl)-4-phenylpiperidine-4-carboxylate] | < 1 nM | < 1 nM |
| O=C(Cc1ccc(CC(=O)N(CCCNC[C@H](O)c2ccc(O)c3[nH]c(=O)ccc23)Cc2ccccc2OCc2ccccc2)cc1)N1CCC(C(=O)O[C@H]2CN3CCC2CC3)(c2ccccc2)CC1 [Compound 43, (R)-Quinuclidin-3-yl 1-(2-(4-(2-((2-(benzyloxy)benzyl)(3-(((R)-2-hydroxy-2-(8-hydroxy-2-oxo-1,2-dihydroquinolin-5-yl)ethyl)amino)propyl)amino)-2-oxoethyl)phenyl)acetyl)-4-phenylpiperidine-4-carboxylate] | 1 to 10 nM | < 1 nM |
| O=C(Cc1ccc(CC(=O)N(CCCNC[C@H](O)c2ccc(O)c3[nH]c(=O)ccc23)Cc2ccccc2N2CCOCC2)cc1)N1CCC(C(=O)O[C@H]2CN3CCC2CC3)(c2ccccc2)CC1 [Compound 44, (R)-Quinuclidin-3-yl 1-(2-(4-(2-((3-(((R)-2-hydroxy-2-(8-hydroxy-2-oxo-1,2-dihydroquinolin-5-yl)ethyl)amino)propyl)(2-morpholinobenzyl)amino)-2-oxoethyl)phenyl)acetyl)-4-phenylpiperidine-4-carboxylate] | 1 to 10 nM | < 1 nM |
| O=C(Cc1ccc(CC(=O)N(CCCNC[C@H](O)c2ccc(O)c3[nH]c(=O)ccc23)Cc2ccccc2F)cc1)N1CCC(C(=O)O[C@H]2CN3CCC2CC3)(c2ccccc2)CC1 [Compound 45, (R)-Quinuclidin-3-yl 1-(2-(4-(2-((2-fluorobenzyl)(3-(((R)-2-hydroxy-2-(8-hydroxy-2-oxo-1,2-dihydroquinolin-5-yl)ethyl)amino)propyl)amino)-2-oxoethyl)phenyl)acetyl)-4-phenylpiperidine-4-carboxylate] | < 1 nM | < 1 nM |
| O=C(Cc1ccc(CC(=O)N2CCC(C(=O)O[C@H]3CN4CCC3CC4)(c3ccccc3)CC2)cc1)NCCCNC[C@H](O)c1ccc(O)c2[nH]c(=O)ccc12 [Compound 46, (R)-Quinuclidin-3-yl 1-(2-(4-(2-((3-(((R)-2-hydroxy-2-(8-hydroxy-2-oxo-1,2-dihydroquinolin-5-yl)ethyl)amino)propyl)amino)-2-oxoethyl)phenyl)acetyl)-4-phenylpiperidine-4-carboxylate] | > 10 nM | > 10 nM |
| CN(CCCNC[C@H](O)c1ccc(O)c2[nH]c(=O)ccc12)C(=O)Cc1ccc(CC(=O)N2CCC(C(=O)O[C@H]3CN4CCC3CC4)(c3ccccc3)CC2)cc1 [Compound 47, (R)-Quinuclidin-3-yl 1-(2-(4-(2-((3-(((R)-2-hydroxy-2-(8-hydroxy-2-oxo-1,2-dihydroquinolin-5-yl)ethyl)amino)propyl)(methyl)amino)-2-oxoethyl)phenyl)acetyl)-4-phenylpiperidine-4-carboxylate] | 1 to 10 nM | 1 to 10 nM |
| O=C(c1ccc(OCCCCCCNC[C@H](O)c2ccc(O)c3[nH]c(=O)ccc23)cc1)N1CCC(C(=O)O[C@H]2CN3CCC2CC3)(c2ccccc2)CC1 [Compound 49, (R)-Quinuclidin-3-yl 1-(4-((6-(((R)-2-hydroxy-2-(8-hydroxy-2-oxo-1,2-dihydroquinolin-5-yl)ethyl)amino)hexyl)oxy)benzoyl)-4-phenylpiperidine-4-carboxylate] | < 1 nM | < 1 nM |
| O=C(c1ccc(OCCCCCCNC[C@H](O)c2ccc(O)c3[nH]c(=O)ccc23)cc1)N1CCC(C(=O)O[C@H]2CN3CCC2CC3)(c2ccc(Br)cc2)CC1 [Compound 50, (R)-Quinuclidin-3-yl 4-(4-bromophenyl)-1-(4-((6-(((R)-2-hydroxy-2-(8-hydroxy-2-oxo-1,2-dihydroquinolin-5-yl)ethyl)amino)hexyl)oxy)benzoyl)piperidine-4-carboxylate] | < 1 nM | > 10 nM |
| O=C(c1ccc(OCCCCCCNC[C@H](O)c2ccc(O)c3[nH]c(=O)ccc23)cc1)N1CCC(C(=O)O[C@H]2CN3CCC2CC3)(c2ccc(Cl)cc2)CC1 [Compound 51, (R)-Quinuclidin-3-yl 4-(4-chlorophenyl)-1-(4-((6-(((R)-2-hydroxy-2-(8-hydroxy-2-oxo-1,2-dihydroquinolin-5-yl)ethyl)amino)hexyl)oxy)benzoyl)piperidine-4-carboxylate] | < 1 nM | 1 to 10 nM |
| CCN(CCCNC[C@H](O)c1ccc(O)c2[nH]c(=O)ccc12)C(=O)c1ccc(CCC(=O)N2CCC(C(=O)O[C@H]3CN4CCC3CC4)(c3ccccc3)CC2)cc1 [Compound 52, (R)-Quinuclidin-3-yl 1-(3-(4-(ethyl(3-(((R)-2-hydroxy-2-(8-hydroxy-2-oxo-1,2-dihydroquinolin-5-yl)ethyl)amino)propyl)carbamoyl)phenyl)propanoyl)-4-phenylpiperidine-4-carboxylate] | < 1 nM | 1 to 10 nM |
| CN(CCCNC[C@H](O)c1ccc(O)c2[nH]c(=O)ccc12)C(=O)c1ccc(CCC(=O)N2CCC(C(=O)O[C@H]3CN4CCC3CC4)(c3ccccc3)CC2)cc1 [Compound 53, (R)-Quinuclidin-3-yl 1-(3-(4-((3-(((R)-2-hydroxy-2-(8-hydroxy-2-oxo-1,2-dihydroquinolin-5-yl)ethyl)amino)propyl)(methyl)carbamoyl)phenyl)propanoyl)-4-phenylpiperidine-4-carboxylate] | 1 to 10 nM | 1 to 10 nM |
| O=C(CCc1ccc(C(=O)N(CCCNC[C@H](O)c2ccc(O)c3[nH]c(=O)ccc23)Cc2ccccc2)cc1)N1CCC(C(=O)O[C@H]2CN3CCC2CC3)(c2ccccc2)CC1 [Compound 54, (R)-Quinuclidin-3-yl 1-(3-(4-(benzyl(3-(((R)-2-hydroxy-2-(8-hydroxy-2-oxo-1,2-dihydroquinolin-5-yl)ethyl)amino)propyl)carbamoyl)phenyl)propanoyl)-4-phenylpiperidine-4-carboxylate] | 1 to 10 nM | 1 to 10 nM |
| O=C(Cc1ccc(OCc2ccc(CNC[C@H](O)c3ccc(O)c4[nH]c(=O)ccc34)cc2)cc1)N1CCC(C(=O)O[C@H]2CN3CCC2CC3)(c2ccccc2)CC1 [Compound 55, (R)-Quinuclidin-3-yl 1-(2-(4-((4-((((R)-2-hydroxy-2-(8-hydroxy-2-oxo-1,2-dihydroquinolin-5-yl)ethyl)amino)methyl)benzyl)oxy)phenyl)acetyl)-4-phenylpiperidine-4-carboxylate] | < 1 nM | < 1 nM |
| O=C(CCc1ccc(OCc2ccc(CNC[C@H](O)c3ccc(O)c4[nH]c(=O)ccc34)cc2)cc1)N1CCC(C(=O)O[C@H]2CN3CCC2CC3)(c2ccccc2)CC1 [Compound 56, (R)-Quinuclidin-3-yl 1-(3-(4-((4-((((R)-2-hydroxy-2-(8-hydroxy-2-oxo-1,2-dihydroquinolin-5-yl)ethyl)amino)methyl)benzyl)oxy)phenyl)propanoyl)-4-phenylpiperidine-4-carboxylate] | < 1 nM | 1 to 10 nM |
| CC(=O)N(Cc1ccc(CNC[C@H](O)c2ccc(O)c3[nH]c(=O)ccc23)cc1)Cc1ccc(C(=O)N2CCC(C(=O)O[C@H]3CN4CCC3CC4)(c3ccccc3)CC2)cc1 [Compound 57, (R)-Quinuclidin-3-yl 1-(4-((N-(4-((((R)-2-hydroxy-2-(8-hydroxy-2-oxo-1,2-dihydroquinolin-5-yl)ethyl)amino)methyl)benzyl)acetamido)methyl)benzoyl)-4-phenylpiperidine-4-carboxylate] | 1 to 10 nM | < 1 nM |
| CS(=O)(=O)N(Cc1ccc(CNC[C@H](O)c2ccc(O)c3[nH]c(=O)ccc23)cc1)Cc1ccc(C(=O)N2CCC(C(=O)O[C@H]3CN4CCC3CC4)(c3ccccc3)CC2)cc1 [Compound 58, (R)-Quinuclidin-3-yl 1-(4-((N-(4-((((R)-2-hydroxy-2-(8-hydroxy-2-oxo-1,2-dihydroquinolin-5-yl)ethyl)amino)methyl)benzyl)methylsulfonamido)-methyl)benzoyl)-4-phenylpiperidine-4-carboxylate] | 1 to 10 nM | 1 to 10 nM |
